# Reference: US8349851B2, “JAK kinase modulating compounds and methods of use thereof” (Ambit Biosciences Corp., priority 2009, dated 2013)
# Assays:
# TEL-JAK cells = experiment: In vivo efficacy study in the mouse TELJAK model (survival); settings: CB17 SCID mice, BID for two weeks; Ambit Internal Compound 50 mg/kg BID, TGEN101348 100 mg/kg BID
# Experimental: In Vivo Efficacy Study in the Mouse TELJAK Mouse Model
# This study was conducted to determine the effect of a selected compound of Formula I on tumor progression and survival. CB17 SCID mice (Harlan Laboratories) were inoculated with 5e5 TEL-JAK cells via tail vein on day 0. Cells were allowed to establish in the animal, and on day 3, dosing was initiated as follows: Vehicle (Pharmatek #6) administered 50 uL at BID to a first group, Ambit Internal Compound prepared in Pharmatek #6 and administered at 50 mg/kg BID to a second group and TGEN101348 prepared in Pharmatek #6 to a third group at 100 mg/kg BID. Each treatment group (16 animals per group) received a twice daily dosing for a two week period. An untreated group of 10 animals also served as control.
# A second study was conducted using the same protocol, with the same controls and the following treatment groups: Ambit Internal Compound A prepared in Pharmatek #6 administered at 60 mg/kg BID and a selected compound of Formula I prepared in Pharmatek #6 at 60 mg/kg BID.
# HEL 92.1.7 cells = experiment: In vivo efficacy study in the mouse HELV617F liquid tumor model (survival); settings: CB17 SCID mice, PO BID, 21 day dosing; Ambit Internal Compound 50 or 60 mg/kg, compound of Formula I 60 mg/kg, TGEN101348 120 mg/kg
# Experimental: In Vivo Efficacy Study in the Mouse HELV617F Liquid Tumor Mouse Model
# This study was conducted to determine the effect of a selected compound of Formula I on tumor progression and survival. CB 17 SCID mice (Charles River Labs) were pretreated with cyclophosphamide IP QD at 150 mg/kg for two consecutive days before being injected with cells. On Day 0, 75 mice were inoculated IV with 5e6 HEL 92.1.7 cells suspended in sterile saline. Animals were weighed on Day 8, and assigned to groups with similar mean body weights and similar standard deviations from the mean. Animals were dosed on Day 8 for a 21 day dosing period. Treatment groups were as follows (10 animals per group): First group was administered vehicle (Pharmatek #6), PO, BID; a second group was administered Ambit Internal Compound A prepared in Pharmatek #6, at 50 mg/kg PO, BID; and a third group was administered TGEN101348 prepared in Pharmatek #6, at 120 mg/kg PO, BID. An untreated group of 10 animals also served as control.
# Another study was conducted using the same protocol, with the same controls and the following treatment groups: Ambit Internal Compound A prepared in Pharmatek #6 administered at 60 mg/kg BID and a selected compound of Formula I prepared in Pharmatek #6 at 60 mg/kg BID.
# [1] = system: csTF-1 cells (GM-CSFR/JAK2/STAT5 pathway); experiment: csTF-1 cell-based reporter assay; parameters: species or system human; settings: Homo sapiens; GM-CSF at 2 ng/mL, 4 hours; read-out: Cell Assay: CS0017: CS TF-1 reporter assay: IC50
# In short: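 GM-CSF-dependent human csTF-1 cells with STAT5-driven beta-lactamase reporter (irf1 element), 2×10^5 cells/well, given serial compound dilutions plus 2 ng/mL GM-CSF in 0.5% DMSO for 4 hours at 30° C. Substrate added 2 h at room temperature; blue (460 nm)/green (530 nm) fluorescence read at 409 nm excitation.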
# JAK3 = molecular target: T1, JAK3 (Homo sapiens, UniProt P52333); experiment: Competition binding assay, JAK3; settings: read-out: Binding Assay: JAK3 (active_KD, ENZ)
# T1 construct: made in house
# T1 sequence (P52333 822-1111 limits assumed): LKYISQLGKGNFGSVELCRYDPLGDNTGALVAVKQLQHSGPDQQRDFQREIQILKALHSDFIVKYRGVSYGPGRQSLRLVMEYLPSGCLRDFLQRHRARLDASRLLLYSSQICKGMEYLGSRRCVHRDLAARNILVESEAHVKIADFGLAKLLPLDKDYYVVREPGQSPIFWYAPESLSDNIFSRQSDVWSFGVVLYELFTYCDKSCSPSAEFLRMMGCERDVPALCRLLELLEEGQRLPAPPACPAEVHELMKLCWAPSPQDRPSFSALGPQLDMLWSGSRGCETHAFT
# In short: (§1)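 JAK2 and JAK3 were each tested individually as T7 phage fusions or HEK-293-expressed DNA-tagged kinases, competing with compound for bead-immobilized biotinylated ligand. Eluted kinase was measured by quantitative PCR. Kd values came from eleven serial threefold dilutions.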
# JAK2 = molecular target: T2, JAK2 (Homo sapiens, UniProt O60674); experiment: Competition binding assay, JAK2; settings: read-out: Binding Assay: JAK2 (active_KD)
# T2 construct: made in house
# T2 sequence (O60674 849-1124 limits assumed): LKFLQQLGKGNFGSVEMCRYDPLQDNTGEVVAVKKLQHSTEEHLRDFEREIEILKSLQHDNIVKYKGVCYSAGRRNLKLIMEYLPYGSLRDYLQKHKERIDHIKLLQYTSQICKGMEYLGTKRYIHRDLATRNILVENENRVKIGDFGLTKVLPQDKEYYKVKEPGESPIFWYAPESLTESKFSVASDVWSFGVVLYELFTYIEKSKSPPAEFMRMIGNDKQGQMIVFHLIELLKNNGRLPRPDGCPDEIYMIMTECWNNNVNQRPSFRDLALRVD
# In short: as §1
# AuroraB = molecular target: T3, AuroraB (Homo sapiens, UniProt Q96GD4); experiment: Competition binding assay, Aurora B
# T3 construct: made in house
# T3 sequence (Q96GD4 whole entry): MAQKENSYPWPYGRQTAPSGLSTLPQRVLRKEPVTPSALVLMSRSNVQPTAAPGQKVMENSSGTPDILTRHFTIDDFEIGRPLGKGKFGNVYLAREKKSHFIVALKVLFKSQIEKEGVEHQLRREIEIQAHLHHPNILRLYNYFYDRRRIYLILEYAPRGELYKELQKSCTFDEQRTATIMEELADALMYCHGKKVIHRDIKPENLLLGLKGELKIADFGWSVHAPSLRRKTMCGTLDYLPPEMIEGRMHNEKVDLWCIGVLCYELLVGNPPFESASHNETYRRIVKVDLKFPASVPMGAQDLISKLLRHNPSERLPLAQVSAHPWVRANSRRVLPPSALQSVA
# From the text: Methods for determining binding constant against Aurora B kinase are known to one of skill in the art. Exemplary methods are described in U.S. provisional application No. 61/294,413, and Fabian et al., Nature Biotechnology 2005, 23,329-336.
# Competition binding assays used herein were developed, validated and performed as described in Fabian et al., Nature Biotechnology 2005, 23,329-336. Kinases were produced as fusions to T7 phage (See, Fabian et al. or WO04/015142) or alternatively, the kinases were expressed in HEK-293 cells and subsequently tagged with DNA for PCR detection (See, WO08/005310). For the binding assays, streptavidin-coated magnetic beads were treated with biotinylated affinity ligands for 30 min at rt to generate affinity resins. The liganded beads were blocked with excess biotin and washed with blocking buffer (SeaBlock (Pierce), 1% BSA, 0.05% Tween 20, 1 mM DTT) to remove unbound ligand and to reduce non-specific binding. […] Test compounds were prepared as 100× stocks in DMSO and rapidly diluted into the aqueous environment. DMSO was added to control assays lacking a test compound. Primary screen interactions were performed in polypropylene 384-well plates in a final volume of 34 μL, while Kd determinations were performed in polystyrene 96-well plates in a final volume of 135 μL. […] The kinase concentration in the eluates was measured by quantitative PCR. Each kinase was tested individually against each compound. Kds were determined using eleven serial threefold dilutions. A selectivity score, which is a quantitative measure of selectivity of a compound against a panel of enzymes, may be calculated for a compound by dividing the number of enzymes for which a compound meets a set criteria, (for example, a binding constant of 100 nM or less), by the total number of enzymes tested.
Compound,increased life span (ILS) (TEL-JAK cells) [%],increased life span (ILS) (HEL 92.1.7 cells),IC50 [1] [nM],Kd (JAK3) [nM],Kd (JAK2) [nM],Kd (AuroraB) [nM]
Cc1cnc(Nc2ccc(OCCN3CCCC3)cc2)nc1Nc1cccc(S(=O)(=O)NC(C)(C)C)c1 [TGEN101348],30,approximately 5%,–,–,–,–
"Cc1cc(Nc2nc(C(O)c3ccc(F)cc3)nc3cc(F)ccc23)n[nH]1 (racemic) [Example 47, (R,S)-(7-fluoro-4-(5-methyl-1H-pyrazol-3-ylamino)quinazolin-2-yl)(4-fluorophenyl)methanol]",–,–,100 to 500,10 to 100,≤ 1,> 200
"Fc1ccc(C(F)c2nc(Nc3cc[nH]n3)c3ccccc3n2)cc1 (racemic) [Example 7, (R,S)-2-(fluoro(4-fluorophenyl)methyl)-N-(1H-pyrazol-3-yl)quinazolin-4-amine]",–,–,100 to 500,10 to 100,≤ 1,> 200
"COc1ccccc1C(=O)c1nc(Nc2cc[nH]n2)c2ccccc2n1 [Example 5, (4-(1H-pyrazol-3-ylamino)quinazolin-2-yl)(2-methoxyphenyl)methanone]",–,–,100 to 500,> 100,1 to 10,> 200
"Cc1cc(Nc2nc(C(=O)c3ccc(F)cc3)nc3cc(C(F)(F)F)ccc23)n[nH]1 [Example 17, (4-fluorophenyl)(4-(5-methyl-1H-pyrazol-3-ylamino)-7-(trifluoromethyl)quinazolin-2-yl)methanone]",–,–,100 to 500,> 100,> 10,> 200
